Calls of active or inactive are those of the source. The rule behind the calls is not given here.
How the values were obtained:
[1] = target: T1, Protein cereblon/Tyrosine-protein kinase ABL1/Breakpoint cluster region protein (Homo sapiens, UniProt P00519+P11274+Q96SW2); test: Protac activity at CRBN/BCR-ABL in human K562 cells assessed as increase in BCR-ABL degradation at 5 nM by Western blotting analysis; assay type: cell-based
[2] = target: T1, Protein cereblon/Tyrosine-protein kinase ABL1/Breakpoint cluster region protein; test: Protac activity at CRBN/BCR-ABL in human K562 cells assessed as increase in BCR-ABL degradation at 100 nM by Western blotting analysis; assay type: cell-based
K562 = test: cells; details: Homo sapiens, K562, 48 h
Description: Antiproliferative activity against human K562 cells assessed as inhibition of cell growth incubated for 2 days by CCK8 assay

[3] = target: T1, Protein cereblon/Tyrosine-protein kinase ABL1/Breakpoint cluster region protein; test: Protac activity at CRBN/BCR-ABL in human K562 cells assessed as increase in BCR-ABL degradation at 50 nM by Western blotting analysis; assay type: cell-based
[4] = target: T2, Signal transducer and activator of transcription 5A (Homo sapiens) (UniProt P42229); test: Inhibition of STAT5 phosphorylation at Tyr694 residue in human K562 cells at 100 nM incubated for 6 hrs followed by compound washout measured upto 96 hrs by Western blotting analysis; assay type: cell-based
T2 sequence (whole entry): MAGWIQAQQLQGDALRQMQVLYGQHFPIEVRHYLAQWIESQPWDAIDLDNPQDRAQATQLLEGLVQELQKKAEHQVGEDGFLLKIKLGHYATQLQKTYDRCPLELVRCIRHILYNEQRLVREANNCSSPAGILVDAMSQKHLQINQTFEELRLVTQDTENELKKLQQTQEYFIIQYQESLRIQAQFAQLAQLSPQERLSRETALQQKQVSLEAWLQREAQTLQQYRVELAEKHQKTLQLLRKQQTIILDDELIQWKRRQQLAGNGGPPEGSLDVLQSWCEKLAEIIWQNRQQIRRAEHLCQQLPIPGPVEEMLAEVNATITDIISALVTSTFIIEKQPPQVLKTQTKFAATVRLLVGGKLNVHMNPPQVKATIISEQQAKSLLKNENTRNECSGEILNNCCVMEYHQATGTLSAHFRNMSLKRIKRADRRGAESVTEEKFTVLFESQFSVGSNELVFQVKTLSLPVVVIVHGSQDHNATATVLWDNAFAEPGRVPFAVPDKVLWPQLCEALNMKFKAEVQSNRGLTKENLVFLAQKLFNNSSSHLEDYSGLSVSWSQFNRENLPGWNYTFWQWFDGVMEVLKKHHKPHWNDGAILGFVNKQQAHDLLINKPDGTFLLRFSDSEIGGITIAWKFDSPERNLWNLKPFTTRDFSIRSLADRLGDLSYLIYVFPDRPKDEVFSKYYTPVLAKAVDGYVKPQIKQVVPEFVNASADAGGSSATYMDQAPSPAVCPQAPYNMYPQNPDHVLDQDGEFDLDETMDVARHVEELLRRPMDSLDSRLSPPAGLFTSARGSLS

[5] = target: Crk-like protein (Homo sapiens) (UniProt P46109); test: Inhibition of CRKL phosphorylation at Tyr207 residue in human K562 cells at 100 nM incubated for 6 hrs followed by compound washout measured upto 96 hrs by Western blotting analysis; assay type: cell-based
[6] = target: T1, Protein cereblon/Tyrosine-protein kinase ABL1/Breakpoint cluster region protein; test: Protac activity at CRBN/BCR-ABL in human K562 cells assessed as increase in BCR-ABL degradation at 100 nM incubated for 6 hrs followed by compound washout measured upto 96 hrs by Western blotting analysis; assay type: cell-based
[7] = target: Crk-like protein (Homo sapiens) (UniProt P46109); test: Inhibition of CRKL phosphorylation at Tyr207 residue in human K562 cells at 0.3 to 100 nM incubated for 16 hrs by Western blotting analysis; assay type: cell-based; details: dose 0.3-100 nM
[8] = target: T3, Bcr/Abl fusion protein (Homo sapiens) (UniProt P00519+P11274); test: Inhibition of BCR-ABL phosphorylation at Tyr245 residue in human K562 cells at 0.3 to 100 nM incubated for 16 hrs by Western blotting analysis; assay type: cell-based; details: dose 0.3-100 nM
[9] = target: T3, Bcr/Abl fusion protein (Homo sapiens); test: Inhibition of BCR-ABL phosphorylation at Tyr245 residue in human K562 cells at 100 nM incubated for 6 hrs followed by compound washout measured upto 96 hrs by Western blotting analysis; assay type: cell-based
[10] = target: T2, Signal transducer and activator of transcription 5A (Homo sapiens); test: Inhibition of STAT5 phosphorylation at Tyr694 residue in human K562 cells at 0.3 to 100 nM incubated for 16 hrs by Western blotting analysis; assay type: cell-based; details: dose 0.3-100 nM

T1 sequence (P00519 whole entry, looked up): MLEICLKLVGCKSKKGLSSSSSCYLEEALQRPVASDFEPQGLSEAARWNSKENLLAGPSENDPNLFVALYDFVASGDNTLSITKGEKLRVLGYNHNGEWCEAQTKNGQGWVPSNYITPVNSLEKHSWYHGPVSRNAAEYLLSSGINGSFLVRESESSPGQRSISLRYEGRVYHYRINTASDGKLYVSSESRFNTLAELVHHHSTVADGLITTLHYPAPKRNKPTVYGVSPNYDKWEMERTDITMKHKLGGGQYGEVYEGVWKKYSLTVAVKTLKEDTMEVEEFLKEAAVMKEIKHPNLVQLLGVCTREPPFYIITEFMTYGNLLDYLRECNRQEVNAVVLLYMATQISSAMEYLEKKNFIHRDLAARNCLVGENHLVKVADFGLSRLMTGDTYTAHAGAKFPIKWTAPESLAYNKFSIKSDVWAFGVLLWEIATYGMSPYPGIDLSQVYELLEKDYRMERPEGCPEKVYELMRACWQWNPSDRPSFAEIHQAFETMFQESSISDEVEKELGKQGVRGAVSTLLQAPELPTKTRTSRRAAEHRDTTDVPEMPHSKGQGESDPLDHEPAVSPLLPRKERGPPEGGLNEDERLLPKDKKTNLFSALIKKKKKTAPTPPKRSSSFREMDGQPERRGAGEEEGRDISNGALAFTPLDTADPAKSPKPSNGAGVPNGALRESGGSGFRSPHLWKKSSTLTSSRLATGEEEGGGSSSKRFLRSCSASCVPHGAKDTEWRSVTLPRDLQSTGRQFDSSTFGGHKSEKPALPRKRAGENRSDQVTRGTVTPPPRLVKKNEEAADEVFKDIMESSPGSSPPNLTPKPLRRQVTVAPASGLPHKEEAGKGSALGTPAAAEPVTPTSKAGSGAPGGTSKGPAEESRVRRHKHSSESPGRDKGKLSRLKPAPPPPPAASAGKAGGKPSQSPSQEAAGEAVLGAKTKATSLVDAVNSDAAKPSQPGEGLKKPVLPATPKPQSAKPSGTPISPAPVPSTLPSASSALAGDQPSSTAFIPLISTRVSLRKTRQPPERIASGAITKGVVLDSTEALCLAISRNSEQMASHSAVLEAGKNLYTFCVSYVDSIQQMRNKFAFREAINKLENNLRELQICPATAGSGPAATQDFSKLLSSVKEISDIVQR
T1 sequence (P11274 whole entry, looked up): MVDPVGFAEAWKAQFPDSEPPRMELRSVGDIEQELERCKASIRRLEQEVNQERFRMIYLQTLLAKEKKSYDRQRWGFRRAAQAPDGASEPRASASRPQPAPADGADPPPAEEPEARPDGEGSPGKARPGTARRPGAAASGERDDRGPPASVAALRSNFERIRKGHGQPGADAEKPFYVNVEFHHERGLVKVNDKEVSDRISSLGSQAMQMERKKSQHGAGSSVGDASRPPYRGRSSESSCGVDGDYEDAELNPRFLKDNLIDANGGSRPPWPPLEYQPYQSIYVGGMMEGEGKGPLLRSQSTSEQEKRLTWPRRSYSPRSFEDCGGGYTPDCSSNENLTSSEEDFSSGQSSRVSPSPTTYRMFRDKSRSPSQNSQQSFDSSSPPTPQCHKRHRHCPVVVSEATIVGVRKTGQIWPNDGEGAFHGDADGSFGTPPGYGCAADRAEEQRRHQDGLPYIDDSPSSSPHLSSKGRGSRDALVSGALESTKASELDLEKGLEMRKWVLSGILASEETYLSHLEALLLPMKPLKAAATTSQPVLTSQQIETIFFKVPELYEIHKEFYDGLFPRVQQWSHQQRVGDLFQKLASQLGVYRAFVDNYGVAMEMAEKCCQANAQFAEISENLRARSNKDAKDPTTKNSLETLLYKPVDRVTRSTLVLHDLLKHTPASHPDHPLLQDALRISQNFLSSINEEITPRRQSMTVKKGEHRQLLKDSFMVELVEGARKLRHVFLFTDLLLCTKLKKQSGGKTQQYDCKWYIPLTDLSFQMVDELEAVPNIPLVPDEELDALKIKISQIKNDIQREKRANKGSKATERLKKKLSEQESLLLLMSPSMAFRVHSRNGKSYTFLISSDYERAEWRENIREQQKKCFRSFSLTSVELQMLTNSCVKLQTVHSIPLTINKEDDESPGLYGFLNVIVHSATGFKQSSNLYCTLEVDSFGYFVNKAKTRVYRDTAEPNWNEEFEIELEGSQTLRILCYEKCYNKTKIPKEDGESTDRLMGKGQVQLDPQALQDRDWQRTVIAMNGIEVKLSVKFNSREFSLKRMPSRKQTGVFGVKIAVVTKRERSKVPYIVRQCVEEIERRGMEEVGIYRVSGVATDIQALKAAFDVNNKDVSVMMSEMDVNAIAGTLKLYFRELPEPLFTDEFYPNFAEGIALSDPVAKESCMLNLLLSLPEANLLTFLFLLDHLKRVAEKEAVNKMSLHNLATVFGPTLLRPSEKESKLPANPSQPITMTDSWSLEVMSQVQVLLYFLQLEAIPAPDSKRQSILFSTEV
T1 sequence (Q96SW2 whole entry, looked up): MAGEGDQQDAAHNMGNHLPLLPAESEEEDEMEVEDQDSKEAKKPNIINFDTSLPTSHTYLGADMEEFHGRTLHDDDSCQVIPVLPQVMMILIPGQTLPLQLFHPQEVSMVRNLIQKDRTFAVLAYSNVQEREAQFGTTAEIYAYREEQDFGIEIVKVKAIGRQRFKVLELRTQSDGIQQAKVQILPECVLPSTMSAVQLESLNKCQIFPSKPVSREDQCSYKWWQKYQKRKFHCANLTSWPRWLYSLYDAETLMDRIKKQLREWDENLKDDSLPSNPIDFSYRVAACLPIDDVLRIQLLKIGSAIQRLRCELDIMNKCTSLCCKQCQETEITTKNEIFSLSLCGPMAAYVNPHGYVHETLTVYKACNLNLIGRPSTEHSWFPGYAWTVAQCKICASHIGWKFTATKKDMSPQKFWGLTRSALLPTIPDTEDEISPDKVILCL
T3 sequence (P00519 whole entry, looked up, the tested form may be a part): as the sequence (P00519 whole entry, looked up) above
T3 sequence (P11274 whole entry, looked up, the tested form may be a part): as the sequence (P11274 whole entry, looked up) above
Chain of Crk-like protein (Homo sapiens) (P46109 whole entry, the tested form may be a part): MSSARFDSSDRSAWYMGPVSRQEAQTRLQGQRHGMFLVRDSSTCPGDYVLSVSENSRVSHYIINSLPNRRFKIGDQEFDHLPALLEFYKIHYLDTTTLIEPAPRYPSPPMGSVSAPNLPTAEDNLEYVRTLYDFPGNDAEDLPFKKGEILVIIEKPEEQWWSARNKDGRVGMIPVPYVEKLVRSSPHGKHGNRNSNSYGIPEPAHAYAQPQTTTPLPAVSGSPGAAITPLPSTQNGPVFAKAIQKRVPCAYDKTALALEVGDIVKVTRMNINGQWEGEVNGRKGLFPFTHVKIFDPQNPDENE

Compound | Activity [1] [%] | Activity [2] [%] | IC50 (K562) [µM] | other results
O=C1CCC(N2Cc3c(SCCCCCCN4CCN(c5ncc(C(=O)Nc6ccc(OC(F)(F)Cl)cc6)cc5-c5ccn[nH]5)CC4)cccc3C2=O)C(=O)N1 (stereo unspecified) | 24.6 | 40.8 | 0.292 | –
O=C1CCC(N2C(=O)c3cccc(OCCCC(=O)N4CCN(c5ncc(C(=O)Nc6ccc(OC(F)(F)Cl)cc6)cc5-c5ccn[nH]5)CC4)c3C2=O)C(=O)N1 (stereo unspecified) | – | – | 1.12 | Activity [3]: -1.35%
O=C1CCC(N2Cc3c(SCCCN4CCN(c5ncc(C(=O)Nc6ccc(OC(F)(F)Cl)cc6)cc5-c5ccn[nH]5)CC4)cccc3C2=O)C(=O)N1 (stereo unspecified) | 48.4 | 40 | 0.137 | –
O=C1CCC(N2C(=O)c3cccc(NCCOCCOCCOCCOCCC(=O)N4CCN(c5ncc(C(=O)Nc6ccc(OC(F)(F)Cl)cc6)cc5-c5ccn[nH]5)CC4)c3C2=O)C(=O)N1 (stereo unspecified) | – | – | 0.886 | Activity [3]: 4.94%
O=C1CCC(N2Cc3c(SCCCCNC4CCN(c5ncc(C(=O)Nc6ccc(OC(F)(F)Cl)cc6)cc5-c5ccn[nH]5)CC4)cccc3C2=O)C(=O)N1 (stereo unspecified) | 5.76 | 41.6 | 0.322 | –
O=C1CCC(N2Cc3c(SCCCCCNC4CCN(c5ncc(C(=O)Nc6ccc(OC(F)(F)Cl)cc6)cc5-c5ccn[nH]5)CC4)cccc3C2=O)C(=O)N1 (stereo unspecified) | -3.96 | 29.7 | 0.978 | –
O=C1CCC(N2Cc3c(C#CCCCCCCN4CCN(C5CCN(c6ncc(C(=O)Nc7ccc(OC(F)(F)Cl)cc7)cc6-c6ccn[nH]6)CC5)CC4)cccc3C2=O)C(=O)N1 (stereo unspecified) | 38.4 | 29.9 | 0.124 | –
Nc1cccc2c1CN(C1CCC(=O)NC1=O)C2=O (stereo unspecified) [LENALIDOMIDE] | – | – | > 10 | –
O=C1CCC(N2Cc3c(SCCCC(=O)N4CCN(c5ncc(C(=O)Nc6ccc(OC(F)(F)Cl)cc6)cc5-c5ccn[nH]5)CC4)cccc3C2=O)C(=O)N1 (stereo unspecified) | – | – | 0.106 | Activity [3]: 35.1%
O=C1CCC(N2C(=O)c3cccc(NCCCCC(=O)N4CCN(c5ncc(C(=O)Nc6ccc(OC(F)(F)Cl)cc6)cc5-c5ccn[nH]5)CC4)c3C2=O)C(=O)N1 (stereo unspecified) | – | – | 0.172 | Activity [3]: 1.94%
O=C1CCC(N2Cc3c(SCCCCCCNC4CCN(c5ncc(C(=O)Nc6ccc(OC(F)(F)Cl)cc6)cc5-c5ccn[nH]5)CC4)cccc3C2=O)C(=O)N1 (stereo unspecified) | 29.4 | 70.9 | 0.228 | –
CN1C(=O)CCC(N2Cc3c(SCCCCCCN4CCN(C5CCN(c6ncc(C(=O)Nc7ccc(OC(F)(F)Cl)cc7)cc6-c6ccn[nH]6)CC5)CC4)cccc3C2=O)C1=O (stereo unspecified) | – | – | – | inhibition [4]: inactive; inhibition [5]: inactive; Activity [6]: inactive; Activity [7]: Active; Activity [8]: Active; inhibition [9]: inactive; Activity [10]: Active
O=C1CCC(N2C(=O)c3cccc(NCC(=O)N4CCN(c5ncc(C(=O)Nc6ccc(OC(F)(F)Cl)cc6)cc5-c5ccn[nH]5)CC4)c3C2=O)C(=O)N1 (stereo unspecified) | – | – | 0.572 | Activity [3]: 1.82%
O=C1CCC(N2Cc3c(SCCCCCNc4ncc(C(=O)Nc5ccc(OC(F)(F)Cl)cc5)cc4-c4ccn[nH]4)cccc3C2=O)C(=O)N1 (stereo unspecified) | 6.85 | 29.6 | 0.558 | –
O=C1CCC(N2C(=O)c3cccc(SCCCCN4CCN(C5CCN(c6ncc(C(=O)Nc7ccc(OC(F)(F)Cl)cc7)cc6-c6ccn[nH]6)CC5)CC4)c3C2=O)C(=O)N1 (stereo unspecified) | 38.2 | 70.9 | 0.17 | –
O=C1CCC(N2Cc3c(SCCCCCN4CCN(C5CCN(c6ncc(C(=O)Nc7ccc(OC(F)(F)Cl)cc7)cc6-c6ccn[nH]6)CC5)CC4)cccc3C2=O)C(=O)N1 (stereo unspecified) | 24.3 | 37.1 | 0.0231 | –
O=C1CCC(N2Cc3c(SCCCCN4CCN(c5ncc(C(=O)Nc6ccc(OC(F)(F)Cl)cc6)cc5-c5ccn[nH]5)CC4)cccc3C2=O)C(=O)N1 (stereo unspecified) | 40.8 | 87.8 | 0.0303 | –
O=C1CCC(N2Cc3c(OCCCCCCN4CCN(C5CCN(c6ncc(C(=O)Nc7ccc(OC(F)(F)Cl)cc7)cc6-c6ccn[nH]6)CC5)CC4)cccc3C2=O)C(=O)N1 (stereo unspecified) | 28.8 | 67.9 | 0.066 | –
